Data as given in patent US20140057865A1, “ANALYSIS OF NODES IN CELLULAR PATHWAYS” (Nodality, Inc., priority 2009, published 2014).
Entries after “also recorded” stand apart in the source; their conditions may differ.

What was measured:
U937 cells [1] = experiment: Cell cycle progression and cell death by DAPI staining and scatter; assay type: cell-based, human; settings: Vidaza 2.5 μM, Dacogen 0.625 μM, 20 hours
Experimental: (§1) FIGS. 9 and 10 show an embodiment of the invention used to analyze the effects of the DNA methyltransferase inhibitor drugs Vidaza® cytidine analog and Dacogen® cytidine analog on cultured U937 cells. See Example 1 in U.S. Ser. No. 61/120,320 for detailed cell culture, staining, and flow cytometry protocols similar to those used in this example. Here, to analyze the effects of Vidaza® cytidine analog and Dacogen® cytidine analog on cell cycle progression and cell death, U937 cells were treated with Vidaza® cytidine analog (5-Azacytidine) at a concentration of 2.5 μM, or Dacogen® cytidine analog (5-Aza-2′-deoxycytidine) at a concentration of 0.625 μM. The cells were continuously incubated with the drugs for 20 hours in 10% FBS RPMI, fixed, permeabilized, and then stained with DAPI, or stained with DAPI and immunolabeled with antibodies against DMNT 1.
(§2) (See Alberts et al., Molecular Biology of the Cell, 4th Ed., Chapter 17 for an overview of the cell cycle). […] Additionally, the experimental results in this example may be used to identify therapeutic agents that can be used in combination with either Vidaza® cytidine analog or Dacogen® cytidine analog. […]

[2] = test system: erythroblast (TF-1) cell line; experiment: DNA content by DAPI staining, flow cytometry; assay type: cell-based, human; settings: for cell cycle arrest and cell death by DNA content (sub-2n through 4n, DAPI staining): TF-1 erythroblasts, several dilutions, 24 hours
Description: DNA content can be directly monitored using fluorescent dyes that bind DNA in the major or minor groove. This labeled DNA can be detected and cellular DNA content can be determined using flow cytometry or other methods as described below. DNA content can be used to indicate the status of a cell or population of cells. The effect of a compound on both the cell cycle and cell death pathways can be determined by monitoring changes in DNA content within a single cell or a population of cells. For example, cell cycle arrest in G1 or G2/M phases of the cell cycle may appear as an increase in 2n or 4n DNA content respectively while an increase in cell death may appear as an increase in sub-2n DNA content.
(§3) In the example, erythroblast (TF-1) and U937 cell lines, as well as healthy bone marrow mononuclear cells, were treated with a test modulator (ON01910.Na) over several dilutions for 24 hours. Flow cytometry was used to obtain multiple intracellular readouts or nodes, including levels of protein phosphorylation, levels of protein expression, cell size and shape, and DNA content.

[3] = test system: erythroblast (TF-1) cell line; experiment: Cell death by forward and side scatter of light; assay type: cell-based, human; settings: TF-1 erythroblasts, 24 and 48-hour continuous treatment
Description: In some embodiments of the invention, the activatible elements may function in cell death, including apoptosis or necrosis. A person of ordinary skill in the art may analyze cell death using stains, biomarkers, assays, or kits to identify node states associated with cell cycle progression and cell death without departing from the scope of the invention. By way of example, stains used to identify cell death include, but are not limited to amine aqua, propidium iodide, 4′,6-diamidino-2-phenylindole (DAPI), bromodeoxyuridine (BrdU), acridine orange, SYTOX, and TUNEL. A person of ordinary skill in the art will appreciate that several of the aforementioned stains, such as DAPI, may also be used to determine the cell cycle of a single cell or population of cells. Cell death may also be identified using the forward versus side scatter dot plots obtained during flow cytometry.
as §3

TF-1 cells = experiment: Cell cycle nodes (p-Cdk1 Y15, p-Histone H3 S28, Cyclin B1) by flow cytometry; assay type: cell-based, human
Experimental: as §3
FIGS. 4-6 show the effects of two concentrations of ON01910.Na on different markers or nodes whose activation status correlates with cell cycle progression. […] Cdk1 activation normally occurs at the end of G2, so increased Cdk1 levels […] at tyrosine 15 are consistent with cell cycle arrest in G2 or early M phases (See Alberts et al, Molecular Biology of the Cell, 4th Ed., Chapter 17 for a detailed discussion of the cell cycle).
Phosphorylation of histone H3 is a marker of chromatin condensation and entry into M phase (See Alberts et al, Molecular Biology of the Cell, 4th Ed., FIG. 4-35 for discussion of histone modifications). Continuous treatment with ON01910.Na for 24-hours enhances H3 (Ser28) phosphorylation. The effects of these two doses on the node state (serine 28 phosphorylation of H3) are detectable using flow cytometry. […] FIG. 7 presents a summary of the effects of ON01910.Na treatment on the Cyclin B1, p-Cdk1 Y15, and pH3 S28 cell cycle nodes.

U937 cells [4] = experiment: Cell cycle nodes by flow cytometry, ON01910.Na titration; assay type: cell-based, human
Experimental: as §3
(§4) The findings shown in FIGS. 4 through 7 were tested in other cell types.

[5] = test system: healthy bone marrow mononuclear cells; experiment: as above; assay type: cell-based
Experimental: as §3, §4

[6] = test system: healthy bone marrow mononuclear cells; experiment: Viability of healthy BMMCs, ON01910.Na titration; assay type: cell-based
Experimental: as §3, §4

DNMT1 = DNMT1 expression by immunolabeling, flow cytometry; assay type: cell-based, human; settings: U937 cells, Vidaza 2.5 μM, 20 hours
Experimental: as §1, §2

[7] = TF-1 erythroblasts, two concentrations, 24 hours continuous

Compound | effect on cell cycle progression and cell death (DAPI frequency plots, scatter) (U937 cells [1]) | 4n DNA content peak ([2]; TF-1 cells, 0.12 μM and 0.37 μM) | cell cycle arrest and cell death by DNA content (sub-2n through 4n, DAPI staining) [2] | cell cycle arrest and cell death by DNA content (sub-2n through 4n, DAPI staining) ([2]; listed as ON-01910.Na) | cell death by scatter properties [3] | cell death by scatter properties ([3]; listed as ON-01910.Na) | cell cycle arrest indicated by Cyclin B1, p-Cdk1 Y15 and pH3 S28 nodes (TF-1 cells; TF-1 cells, various concentrations, 24 hours) | Cyclin B1 expression (TF-1 cells; TF-1 erythroblasts, increased concentration) | p-Cdk1 Y15 phosphorylation (TF-1 cells; [7]) | p-Histone H3 S28 phosphorylation (TF-1 cells; [7]) | changes in cell cycle signaling molecules (U937 cells [4]) | expression of Cyclin B1 (U937 cells [4]; 24 hours) | phosphorylation of Cdk1 (U937 cells [4]; 24 hours) | phosphorylation of H3 (U937 cells [4]; 24 hours) | cycling bone marrow mononuclear cells as measured by p-Cdk1 Y15 ([5]; BMMCs) | Cyclin B1 expression levels ([5]; healthy BMMCs) | viability of healthy bone marrow mononuclear cells [6] | expression of DNMT1 (DNMT1)
Nc1ncn([C@H]2C[C@H](O)[C@@H](CO)O2)c(=O)n1 [Dacogen, 5-Aza-2′-deoxycytidine] | S phase cell cycle arrest; also recorded: inducing arrest at S phase |  |  |  |  |  |  |  |  |  |  |  |  |  |  |  |  | 
COc1cc(OC)c(/C=C/S(=O)(=O)Cc2ccc(OC)c(NCC(=O)[O-])c2)c(OC)c1.[Na+] [ON01910.Na] |  | increases in a dose-dependent manner | induces arrest in G2/M and cell death in a dose-dependent manner | induces arrest in G2/M and cell death | induce cell death, with a greater magnitude of cell death observed following longer treatment and higher dose; also recorded: induces cell death in erythroblasts | induces cell death | arrest in the G2 or M phases of the cell cycle in a dose dependent manner | more cells express Cyclin B1; also recorded: mediates an increase in cyclin B1 | increases dephosphorylation of p-Cdk1 at tyrosine 15; also recorded: mediates dephosphorylation of p-Cdk1^Y15 | histone 3 serine 28 phosphorylation increases; also recorded: mediates an increase in p-HistoneH3^S28 | simultaneous changes in cell cycle signaling molecules at the same drug concentration | increased | decreased phosphorylation of Cdk1 | increased phosphorylation of H3 | dose dependent decrease of cycling bone marrow mononuclear cells | Cyclin B1 expression levels increase | does not significantly alter viability | 
Nc1ncn([C@@H]2O[C@H](CO)[C@@H](O)[C@H]2O)c(=O)n1 [Vidaza, 5-Azacytidine] | increased cell death; also recorded: inducing cell death |  |  |  |  |  |  |  |  |  |  |  |  |  |  |  |  | decreased expression; also recorded: mediates a decrease in DNMT1
